Counter-ions that a name gives are not always drawn.
Key:
[1] = tested on: HEL 92.1.7; experiment: cells; assay type: cell-based; conditions: Homo sapiens, HEL 92.1.7, 96 h, read-out: IC50 values
[2] = tested on: NCl-H460; experiment: cells; assay type: cell-based; conditions: 96 h, read-out: IC50 values
[3] = tested on: Jurkat; experiment: cells; assay type: cell-based; conditions: Homo sapiens, 96 h, read-out: IC50 values
[4] = tested on: SK-Mel3; experiment: cells; assay type: cell-based; conditions: Homo sapiens, SK-MEL3, 96 h, read-out: IC50 values
[5] = tested on: LnCap clone FGC; experiment: cells; assay type: cell-based; conditions: Homo sapiens, 96 h, read-out: IC50 values
[6] = in vitro; conditions: human, plasma
[7] = tested on: Capan-1; experiment: cells; assay type: cell-based; conditions: Homo sapiens, CAPAN-1, 96 h, read-out: IC50 values
[8] = physchem; conditions: buffer, pH 7.2
[9] = tested on: HT-29; experiment: cells; assay type: cell-based; conditions: Homo sapiens, HT-29, 96 h, read-out: IC50 values
[10] = tested on: U-937; experiment: cells; assay type: cell-based; conditions: Homo sapiens, U-937, 96 h, read-out: IC50 values
[11] = in vitro; conditions: mouse, plasma
[12] = tested on: MG-63; experiment: cells; assay type: cell-based; conditions: Homo sapiens, MG-63, 96 h, read-out: IC50 values
[13] = tested on: SK-ES1; experiment: cells; assay type: cell-based; conditions: Homo sapiens, SK-ES1, 96 h, read-out: IC50 values

Structure (SMILES) | IC50 [1] | IC50 [2] | IC50 [3] | IC50 [4] | IC50 [5] | half-life [6] | IC50 [7] | half-life [8] | IC50 [9] | IC50 [10] | half-life [11] | IC50 [12] | IC50 [13]
Cn1c(CCCC(=O)O)nc2cc(N(CCCl)CCCl)ccc21 [bendamustine-HCl, 4-{5-[bis(2-chloroethyl)amino]-1-methyl-1H-benzimidazol-2-yl}butanoic acid, reference compound] | 84 ± 7.7 µM | 89.5 ± 10.4 µM | 42.6 ± 5.6 µM | > 100 µM | 71.6 ± 5.4 µM | 131 ± 10.2 min | 25.2 ± 5.4 µM | 10.8 ± 2.9 min | > 100 µM | 91.9 ± 16.4 µM | 35 ± 2.2 min | 55 ± 3.3 µM | 11 ± 1.6 µM
Cl.Cn1c(CCCC(=O)O)nc2ccc(N(CCCl)CCCl)cc21 [iso-bendamustine-HCl, 4-{6-[bis(2-chloroethyl)amino]-1-methyl-1H-benzimidazol-2-yl)butanoic acid hydrochloride] | 76.5 ± 4.5 µM | > 100 µM | 59.5 ± 4 µM | > 100 µM | 18.9 ± 2.6 µM | 83.8 ± 9.3 min | 24.6 ± 4.4 µM | 11.6 ± 1.9 min | > 100 µM | 59.8 ± 5.2 µM | 60.5 ± 2.7 min | 50.1 ± 5.5 µM | 9.6 ± 1.5 µM
CCOC(=O)CCCc1nc2ccc(N(CCCl)CCCl)cc2n1C [iso-bendamustine ethyl ester, ethyl 4-{6-[bis(2-chloroethyl)amino]-1-methyl-1H-benzimidazol-2-yl}butanoate] | 3.5 ± 0.3 µM | 5.4 ± 0.2 µM | 3.9 ± 0.3 µM | 11.7 ± 2.5 µM | 1.5 ± 0.34 µM | 141 ± 6.3 min | 0.91 ± 0.15 µM | 15.3 ± 3.8 min | 11 ± 1.1 µM | 1.6 ± 0.03 µM | < 2 min | 1.9 ± 0.1 µM | 0.24 ± 0.04 µM
